Consider 8 compounds from US12318487B2, “Solid tablet dosage form of ridinilazole” (c/o Summit (Oxford) Limited, priority 2021, dated 2025).

A short description of data set [1]: Crystal agglomerate particle sizing by laser diffraction (Malvern dry dispersion). The data set is classed as physicochemical. How it is done:
This was carried out by laser diffraction using a Malvern 2000 dry disperser. The settings used for sizing are set out below: [table] Sample preparation—Triplicate Invert sample jar or vial 10 times. Weigh approximately 2 g of sample and transfer to the sample tray. Evenly disperse sample in sample tray.

In data set [2] the test system is Clostridioides difficile infection (CDI). The conditions noted are these: Phase 2 trial, CDI recurrence; cited from earlier work.
Data set [3] in a line: BCS classification and solubility of drug substance. The class given is physicochemical. The note with it: across physiologically relevant pH. The text has this: Ridinilazole is a BCS class IV, orally administered and locally acting (lower intestines) GI antibiotic with minimal systemic exposure and very low solubility across physiologically relevant pH. BCS class IV drugs are known to present particular formulation challenges, especially in the case of oral formulations (see e.g. Ghadi and Dand (2017) BCS class IV drugs: Highly notorious candidates for formulation development Journal of Controlled Release, 248: 71-95).

Data set [4] in a line: XRPD limit test for crystal form conversion (Forms D and N) in packaged tablet. The conditions noted are these: proposed storage condition, proposed commercial packaging. The data set is classed as physicochemical. The text has this: The stability of the ridinilazole crystal form within the tablet as packaged in the intended commercial packaging configurations. Assessments have been made using a validated discriminatory X-ray powder diffraction (XRPD) method developed as a limit test for detecting Forms D and N within the drug product.

Setting [5] is: Table 5, input drug substance at limits of specification, listed as 3.
[6] abbreviates: Table 6, micronized ridinilazole tetrahydrate, additional studies, listed as 3.
Setting [7] is: Table 5, input drug substance at limits of specification, listed as 2.
Where [8] appears, read: Table 6, micronized ridinilazole tetrahydrate, additional studies, listed as 2.
The mark [9] stands for this setting: Table 6, micronized ridinilazole tetrahydrate, additional studies, listed as 5.
Where [10] appears, read: Table 5, input drug substance at limits of specification, listed as 1.
Where [11] appears, read: Table 6, micronized ridinilazole tetrahydrate, additional studies, listed as 1.
[12] abbreviates: Table 5, input drug substance at limits of specification, listed as 4.
Setting [13] is: Table 6, micronized ridinilazole tetrahydrate, additional studies, listed as 4.

In data set [1] (setting [5]), `O.O.O.O.c1cc(-c2nc3ccc(-c4ccc5nc(-c6ccncc6)[nH]c5c4)cc3[nH]2)ccn1` [Batch 3, ridinilazole tetrahydrate] showed a D10 of 1 μm, a D50 of 5 μm and a D90 of 11 μm. Also, in data set [1] (setting [6]), the D10 stood at 1.7 μm, the D50 was found to be 7 μm and the D90 is reported as 14 μm.

`O.O.O.O.c1cc(-c2nc3ccc(-c4ccc5nc(-c6ccncc6)[nH]c5c4)cc3[nH]2)ccn1` [Batch 2, ridinilazole tetrahydrate]: in data set [1] (setting [7]), the D10 was 1 μm, the D50 was determined as 5 μm and the D90 was 11 μm. For the same compound, in data set [1] (setting [8]), the D10 came out at 1.1 μm, the D50 was found to be 5 μm and the D90 came out at 11 μm.

Regarding `c1cc(-c2nc3ccc(-c4ccc5nc(-c6ccncc6)[nH]c5c4)cc3[nH]2)ccn1` [ridinilazole, 2,2′-di(pyridin-4-yl)-1H,1′H-5,5′-bibenzo[d]imidazole], in data set [2], the “rates of recurrent disease” value is listed as 14.3%. The solubility result in data set [3] is on record as “very low”.

For `O.O.O.O.c1cc(-c2nc3ccc(-c4ccc5nc(-c6ccncc6)[nH]c5c4)cc3[nH]2)ccn1` [Batch 5, ridinilazole tetrahydrate], in data set [1] (setting [9]), the D10 was 2.0 μm, the D50 was determined as 7 μm and the D90 was 14 μm.

In the case of `O.O.O.O.c1cc(-c2nc3ccc(-c4ccc5nc(-c6ccncc6)[nH]c5c4)cc3[nH]2)ccn1` [Batch 1, ridinilazole tetrahydrate], in data set [1] (setting [10]), the D10 was 2 μm, the D50 is 7 μm and the D90 is reported as 20 μm. In data set [1] (setting [11]), this compound returned a D10 of 1.5 μm, a D50 of 6 μm and a D90 of 14 μm.

In data set [1] (setting [12]), `O.O.O.O.c1cc(-c2nc3ccc(-c4ccc5nc(-c6ccncc6)[nH]c5c4)cc3[nH]2)ccn1` [Batch 4, ridinilazole tetrahydrate] came in with a D10 of 1 μm, a D50 of 3 μm and a D90 of 10 μm. In data set [1] (setting [13]), this compound displayed a D10 of 1.5 μm, a D50 of 6 μm and a D90 of 13 μm.

For the compound `CN[C@H](CC(C)C)C(=O)N[C@H]1C(=O)N[C@@H](CC(N)=O)C(=O)N[C@H]2C(=O)N[C@H]3C(=O)N[C@H](C(=O)N[C@H](C(=O)O)c4cc(O)cc(O)c4-c4cc3ccc4O)[C@H](O)c3ccc(c(Cl)c3)Oc3cc2cc(c3O[C@@H]2O[C@H](CO)[C@@H](O)[C@H](O)[C@H]2O[C@H]2C[C@](C)(N)[C@H](O)[C@H](C)O2)Oc2ccc(cc2Cl)[C@H]1O` [vancomycin, reference compound], the “rates of recurrent disease” value in data set [2] is recorded as 34.8%.

In the case of `c1cc(-c2nc3cc(-c4ccc5[nH]c(-c6ccncc6)nc5c4)ccc3[nH]2)ccn1` [Form A, ridinilazole tetrahydrate], in data set [4], the “crystal form conversion within the tablet” value was “No form conversion is detected”.
